This is an account of results in patent US7135466B2 (Kirin Beer Kabushiki Kaisha, priority 1999, dated 2006).

Some results are limits rather than exact numbers.

One test deals with T1, c-kit (Homo sapiens, UniProt P10721).
T1 construct: MO7e (human megakaryocytic leukemia cell line) which had been arrested for 20 hr; endogenous in cells; host or cells: MO7e human megakaryocytic leukemia cell line
Description: Inhibitory activity against c-kit autophosphorylation (MO7e cells, h-SCF). The conditions noted are these: for IC50: MO7e cells, 50 ng/ml h-SCF, read-out: c-kit IC50; for inhibition at 1 µM: Mo7e, figure within parentheses in −( ) or >1000( ), at 1000 nM. Format: cell-based. In short, it runs like this:
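MO7e cells, arrested for 20 hr, were pretreated with test compound in DMSO for 1 hr and then stimulated with 50 ng/ml h-SCF for 5 min before lysis. Lysates were captured on immobilized anti-phosphotyrosine PY-20, probed with anti-c-kit antibody and HRP anti-rabbit IgG, and read colorimetrically at 450 nm.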

Another test concerns the target T2, PDGF-Ra (Homo sapiens, UniProt P16234).
T2 construct: host or cells: G-292 human osteosarcoma cells
Description: Inhibitory activity against PDGF-Ra phosphorylation by PDGF-AA stimulation using G292. Format: cell-based. The conditions noted are these: for IC50: > means inhibition at indicated concentration not more than 50%, < and << not less than 50%, read-out: PDGF (E) IC50; for inhibition at 0.1 µM: G292, figure within parentheses in >100( ), at 100 nM, read-out: PDGF (E) inhibition (%) at 100 nM. Summed up:
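G-292 human osteosarcoma cells, serum-starved overnight in 0.1% FBS, were pretreated with compound in DMSO for 1 hr at 37 °C, then stimulated with 50 ng/ml PDGF-AA for 5 min. Lysates were captured on anti-phosphotyrosine PY-20 plates and probed with anti-PDGF-Ra plus HRP secondary; absorbance read at 450 nm.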

A word on the IC50: it is the concentration that inhibits the measured activity by half. A word on the inhibition: it is the drop in the measured response relative to a control, in per cent.

T2 sequence (P16234 24-1089): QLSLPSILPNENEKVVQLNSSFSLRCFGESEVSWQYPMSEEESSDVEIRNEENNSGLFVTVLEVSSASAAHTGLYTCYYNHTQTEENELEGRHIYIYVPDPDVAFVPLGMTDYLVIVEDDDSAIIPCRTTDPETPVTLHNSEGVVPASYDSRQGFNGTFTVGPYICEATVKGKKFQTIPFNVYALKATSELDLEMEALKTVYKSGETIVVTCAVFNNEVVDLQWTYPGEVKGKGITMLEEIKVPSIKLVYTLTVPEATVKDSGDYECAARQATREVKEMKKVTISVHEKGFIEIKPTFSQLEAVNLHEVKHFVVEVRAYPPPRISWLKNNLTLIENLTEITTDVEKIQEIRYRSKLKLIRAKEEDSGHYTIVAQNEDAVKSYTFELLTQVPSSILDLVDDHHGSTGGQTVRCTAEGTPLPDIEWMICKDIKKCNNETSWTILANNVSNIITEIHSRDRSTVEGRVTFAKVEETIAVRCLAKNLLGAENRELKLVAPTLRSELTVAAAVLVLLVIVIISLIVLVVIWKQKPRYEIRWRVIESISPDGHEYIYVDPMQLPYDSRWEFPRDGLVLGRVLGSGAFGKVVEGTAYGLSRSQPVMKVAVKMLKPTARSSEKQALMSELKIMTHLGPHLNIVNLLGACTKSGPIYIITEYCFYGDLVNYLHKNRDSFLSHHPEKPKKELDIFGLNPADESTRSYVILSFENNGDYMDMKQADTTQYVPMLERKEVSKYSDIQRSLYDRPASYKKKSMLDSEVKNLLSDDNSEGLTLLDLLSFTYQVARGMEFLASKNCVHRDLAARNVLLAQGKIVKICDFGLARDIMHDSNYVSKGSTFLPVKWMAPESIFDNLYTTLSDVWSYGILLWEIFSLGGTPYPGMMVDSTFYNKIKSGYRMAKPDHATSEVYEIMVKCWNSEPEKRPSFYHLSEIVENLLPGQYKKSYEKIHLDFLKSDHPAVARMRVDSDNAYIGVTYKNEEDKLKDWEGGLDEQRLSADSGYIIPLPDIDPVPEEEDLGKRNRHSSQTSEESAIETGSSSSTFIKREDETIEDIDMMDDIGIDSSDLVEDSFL
T1 sequence (P10721 26-976): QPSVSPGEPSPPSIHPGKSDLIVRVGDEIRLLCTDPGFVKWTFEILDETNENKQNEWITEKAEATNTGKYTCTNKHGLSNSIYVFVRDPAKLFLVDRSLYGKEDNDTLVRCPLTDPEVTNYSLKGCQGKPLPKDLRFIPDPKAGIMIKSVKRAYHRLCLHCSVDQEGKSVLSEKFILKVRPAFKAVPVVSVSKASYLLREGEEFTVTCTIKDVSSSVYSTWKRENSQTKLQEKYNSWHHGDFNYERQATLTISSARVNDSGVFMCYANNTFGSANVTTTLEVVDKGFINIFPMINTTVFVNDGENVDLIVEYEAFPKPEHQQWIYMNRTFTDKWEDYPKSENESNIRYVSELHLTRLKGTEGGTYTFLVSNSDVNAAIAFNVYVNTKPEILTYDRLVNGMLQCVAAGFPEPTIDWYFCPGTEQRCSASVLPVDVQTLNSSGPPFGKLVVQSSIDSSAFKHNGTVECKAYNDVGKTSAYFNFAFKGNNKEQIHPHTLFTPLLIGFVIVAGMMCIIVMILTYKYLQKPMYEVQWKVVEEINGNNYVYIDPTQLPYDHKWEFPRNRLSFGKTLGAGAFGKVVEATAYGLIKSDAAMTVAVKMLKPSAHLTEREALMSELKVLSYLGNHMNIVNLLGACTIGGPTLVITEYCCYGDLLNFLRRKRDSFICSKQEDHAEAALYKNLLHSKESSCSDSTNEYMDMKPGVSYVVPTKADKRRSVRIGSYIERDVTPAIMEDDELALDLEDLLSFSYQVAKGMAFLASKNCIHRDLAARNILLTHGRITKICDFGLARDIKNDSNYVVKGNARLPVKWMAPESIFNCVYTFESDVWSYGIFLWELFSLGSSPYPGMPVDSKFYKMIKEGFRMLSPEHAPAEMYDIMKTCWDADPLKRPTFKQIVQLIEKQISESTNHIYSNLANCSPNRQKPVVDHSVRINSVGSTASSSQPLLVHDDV

In the case of `CCCC(CCN1CCOCC1)OC(=O)Nc1ccc(Oc2ncnc3cc(OC)c(OC)cc23)cc1` (stereo not shown) [Example 440], the 50% inhibitory concentration (IC50) came to 351 nM at c-kit and 47 nM at PDGF-Ra.

`CCCC(CCN(CC)CC)OC(=O)Nc1cc(C)c(Oc2ccnc3cc(OC)c(OC)cc23)cc1C` (stereo not shown) [Example 442, 1-[2-(Diethylamino)ethyl]butyl N-{4-[(6,7-dimethoxy-4-quinolyl)oxy]-2,5-dimethylphenyl}carbamate]: the inhibition at 1 µM on c-kit amounted to 28%. Moreover, at PDGF-Ra, the IC50 was over 100 nM and the inhibition at 0.1 µM stood at 32%.

In the case of `CCCC(CCN(CC)CC)OC(=O)Nc1ccc(Oc2ccnc3cc(OC)c(OC)cc23)c(C)c1C` (stereo not shown) [Example 443, 1-[2-(Diethylamino)ethyl]butyl N-{4-[(6,7-dimethoxy-4-quinolyl)oxy]-2,3-dimethylphenyl}carbamate], the half-maximal inhibitory concentration (IC50) at c-kit amounted to 627 nM; on PDGF-Ra it was 15 nM.

With `CCCC(CCN(CC)CC)OC(=O)Nc1ccc(Oc2ncnc3cc(OC)c(OC)cc23)cc1` (stereo not shown) [Example 444, 1-[2-(Diethylamino)ethyl]butyl N-{4-[(6,7-dimethoxy-4-quinazolinyl)oxy]phenyl}carbamate], the IC50 at c-kit amounted to 972 nM; on PDGF-Ra, 21 nM.

For the molecule `CCCC(CCN1CCCCC1)OC(=O)Nc1ccc(Oc2ccnc3cc(OC)c(OC)cc23)cc1` (stereo not shown) [Example 445, 1-(2-Piperidinoethyl)butyl N-{4-[(6,7-dimethoxy-4-quinolyl)oxy]phenyl}carbamate], the half-inhibitory concentration (IC50) at c-kit was found to be 941 nM. Moreover, at PDGF-Ra, the IC50 was over 100 nM and the inhibition at 0.1 µM came out at 11%.

`CCCC(CCN1CCCCC1)OC(=O)Nc1cc(C)c(Oc2ccnc3cc(OC)c(OC)cc23)cc1C` (stereo not shown) [Example 446, 1-(2-Piperidinoethyl)butyl N-{4-[(6,7-dimethoxy-4-quinolyl)oxy]-2,5-dimethylphenyl}carbamate]: the inhibition at 1 µM at c-kit was 40%. Further, on PDGF-Ra, the IC50 is over 100 nM and the inhibition at 0.1 µM came out at 39%.

In the case of `CCCC(CCN1CCCCC1)OC(=O)Nc1ccc(Oc2ccnc3cc(OC)c(OC)cc23)c(C)c1C` (stereo not shown) [Example 447], the 50% inhibitory concentration (IC50) on c-kit is 553 nM; at PDGF-Ra, over 100 nM. Further, the inhibition at 0.1 µM on PDGF-Ra amounted to 11%.

As for `CCCC(CCN1CCCCC1)OC(=O)Nc1ccc(Oc2ncnc3cc(OC)c(OC)cc23)cc1` (stereo not shown) [Example 448, 1-(2-Piperidinoethyl)butyl N-{4-[(6,7-dimethoxy-4-quinazolinyl)oxy]phenyl}carbamate], at c-kit, the inhibition at 1 µM turned out to be 25%. Also, on PDGF-Ra, the IC50 is over 100 nM and the inhibition at 0.1 µM turned out to be 39%.

In the case of `CCCC(CCN1CCN(C)CC1)OC(=O)Nc1ccc(Oc2ccnc3cc(OC)c(OC)cc23)cc1` (stereo not shown) [Example 449, 1-[2-(4-Methylpiperazino)ethyl]butyl N-{4-[(6,7-dimethoxy-4-quinolyl)oxy]phenyl}carbamate], on c-kit, the IC50 stood at 747 nM. In addition, at PDGF-Ra, the IC50 is over 100 nM and the inhibition at 0.1 µM worked out at 26%.

As for `CCCC(CCN1CCN(C)CC1)OC(=O)Nc1cc(C)c(Oc2ccnc3cc(OC)c(OC)cc23)cc1C` (stereo not shown) [Example 450, 1-[2-(4-Methylpiperazino)ethyl]butyl N-{4-[(6,7-dimethoxy-4-quinolyl)oxy]-2,5-dimethylphenyl}carbamate], the inhibition at 1 µM on c-kit was determined as 46%. For the same molecule, at PDGF-Ra, the IC50 was over 100 nM and the inhibition at 0.1 µM amounted to 13%.

In the case of `CCCC(CCN1CCN(C)CC1)OC(=O)Nc1ccc(Oc2ccnc3cc(OC)c(OC)cc23)c(C)c1C` (stereo not shown) [Example 451, 1-[2-(4-Methylpiperazino)ethyl]butyl N-{4-[(6,7-dimethoxy-4-quinolyl)oxy]-2,3-dimethylphenyl}carbamate], the IC50 on c-kit came to 613 nM. Also, on PDGF-Ra, the half-inhibitory concentration (IC50) is over 100 nM and the inhibition at 0.1 µM is 25%.

Turning to `CCCC(CCN1CCN(C)CC1)OC(=O)Nc1ccc(Oc2ncnc3cc(OC)c(OC)cc23)cc1` (stereo not shown) [Example 452, 1-[2-(4-Methylpiperazino)ethyl]butyl N-{4-[(6,7-dimethoxy-4-quinazolinyl)oxy]phenyl}carbamate], the inhibition at 1 µM on c-kit was determined as 37%. At PDGF-Ra, the concentration for half-maximal inhibition (IC50) is over 100 nM and the inhibition at 0.1 µM came out at 31%.

For `COc1cc2nccc(Oc3ccc(NC(=O)Oc4cccc(C#N)c4)c(C)c3C)c2cc1OC` [Example 459, 3-Cyanophenyl N-{4-[(6,7-dimethoxy-4-quinolyl)oxy]-2,3-dimethylphenyl}carbamate], the values for the IC50 on c-kit and at PDGF-Ra were under 30 nM and 47 nM, respectively.

For `COc1cc2nccc(Oc3ccc(NC(=O)OC4CCCN(C)C4)cc3)c2cc1OC` (stereo not shown) [Example 462, 1-Methyl-3-piperidyl N-{4-[(6,7-dimethoxy-4-quinolyl)oxy]phenyl}carbamate], the results for the half-inhibitory concentration (IC50) at c-kit and on PDGF-Ra were 575 nM and 52 nM, respectively.

For the molecule `COc1cc2nccc(Oc3cc(C)c(NC(=O)OC4CCCN(C)C4)cc3C)c2cc1OC` (stereo not shown) [Example 463, 1-Methyl-3-piperidyl N-{4-[(6,7-dimethoxy-4-quinolyl)oxy]-2,5-dimethylphenyl}carbamate], the concentration for half-maximal inhibition (IC50) on c-kit stood at 432 nM; at PDGF-Ra it was 91 nM.

For `COc1cc2nccc(Oc3ccc(NC(=O)OC4CCCN(C)C4)c(C)c3C)c2cc1OC` (stereo not shown) [Example 464, 1-Methyl-3-piperidyl N-{4-[(6,7-dimethoxy-4-quinolyl)oxy]-2,3-dimethylphenyl}carbamate], the IC50 amounted to 201 nM on c-kit and 55 nM at PDGF-Ra.

For the molecule `COc1cc2ncnc(Oc3ccc(NC(=O)OC4CCN(C)CC4)cc3)c2cc1OC` [Example 469, 1-Methyl-4-piperidyl N-{4-[(6,7-dimethoxy-4-quinazolinyl)oxy]phenyl}carbamate], on c-kit, the inhibition at 1 µM came out at 28%. Moreover, on PDGF-Ra, the half-maximal inhibitory concentration (IC50) is over 100 nM and the inhibition at 0.1 µM worked out at 0%.

Regarding `COc1cc2nccc(Oc3ccc(NC(=O)OC4CCOCC4)cc3)c2cc1OC` [Example 470, Tetrahydro-2H-4-pyranyl N-{4-[(6,7-dimethoxy-4-quinolyl)oxy]phenyl}carbamate], the results for the concentration for half-maximal inhibition (IC50) on c-kit and at PDGF-Ra were 128 nM and 26 nM, respectively.

With `COc1cc2nccc(Oc3cc(C)c(NC(=O)OC4CCOCC4)cc3C)c2cc1OC` [Example 471, Tetrahydro-2H-4-pyranyl N-{4-[(6,7-dimethoxy-4-quinolyl)oxy]-2,5-dimethylphenyl}carbamate], the IC50 on c-kit is 237 nM; at PDGF-Ra, over 100 nM. For the same molecule, on PDGF-Ra, the inhibition at 0.1 µM was 28%.

For `COc1cc2nccc(Oc3ccc(NC(=O)OC4CCOCC4)c(C)c3C)c2cc1OC` [Example 472, Tetrahydro-2H-4-pyranyl N-{4-[(6,7-dimethoxy-4-quinolyl)oxy]-2,3-dimethylphenyl}carbamate], the IC50 on c-kit was determined as 67 nM; at PDGF-Ra it was 31 nM.

With `COc1cc2ncnc(Oc3ccc(NC(=O)OC4CCOCC4)cc3)c2cc1OC` [Example 473, Tetrahydro-2H-4-pyranyl N-{4-[(6,7-dimethoxy-4-quinazolinyl)oxy]phenyl}carbamate], the IC50 on c-kit came out at 259 nM. On PDGF-Ra, the concentration for half-maximal inhibition (IC50) was over 100 nM and the inhibition at 0.1 µM turned out to be 30%.

For `COc1cc2ncnc(Oc3ccc(N(C)C(=O)OC4CCCCC4)c(Cl)c3)c2cc1OC` [Example 474, Cyclohexyl N-{2-chloro-4-[(6,7-dimethoxy-4-quinazolinyl)oxy]phenyl}-N-methylcarbamate], at c-kit, the inhibition at 1 µM worked out at 6%. For the same molecule, the half-inhibitory concentration (IC50) on PDGF-Ra came out at 46 nM.

For `CCN(C(=O)OC1CCCCC1)c1ccc(Oc2ncnc3cc(OC)c(OC)cc23)cc1Cl` [Example 475, Cyclohexyl N-{2-chloro-4-[(6,7-dimethoxy-4-quinazolinyl)oxy]phenyl}-N-ethylcarbamate], the inhibition at 1 µM on c-kit is 24%. For the same molecule, at PDGF-Ra, the IC50 worked out at 15 nM.

`COc1cc2ncnc(Oc3ccc(N(C)C(=O)OC4CCCCC4)cc3)c2cc1OC` [Example 476, Cyclohexyl N-{4-[(6,7-dimethoxy-4-quinazolinyl)oxy]phenyl}-N-methylcarbamate]: the half-inhibitory concentration (IC50) on c-kit was 172 nM; on PDGF-Ra, under 10 nM.

Turning to `CCN(C(=O)OC1CCCCC1)c1ccc(Oc2ncnc3cc(OC)c(OC)cc23)cc1` [Example 477, Cyclohexyl N-{4-[(6,7-dimethoxy-4-quinazolinyl)oxy]phenyl}-N-ethylcarbamate], the concentration for half-maximal inhibition (IC50) on c-kit is 248 nM; on PDGF-Ra it was 59 nM.

For `COc1ccccc1COC(=O)N(C)c1ccc(Oc2ncnc3cc(OC)c(OC)cc23)cc1Cl` [Example 478, 2-Methoxybenzyl N-{2-chloro-4-[(6,7-dimethoxy-4-quinazolinyl)oxy]phenyl}-N-methylcarbamate], on c-kit, the inhibition at 1 µM amounted to 28%. For the same molecule, the IC50 on PDGF-Ra was found to be 17 nM.

With `COc1cc2ncnc(Oc3ccc(N(C)C(=O)OCc4ccccc4C)c(Cl)c3)c2cc1OC` [Example 479, 2-Methylbenzyl N-{2-chloro-4-[(6,7-dimethoxy-4-quinazolinyl)oxy]phenyl}-N-methylcarbamate], at c-kit, the inhibition at 1 µM came to 17%. For the same molecule, the IC50 on PDGF-Ra turned out to be 13 nM.

For the molecule `COc1cc2ncnc(Oc3ccc(N(C)C(=O)OCc4ccccc4Cl)c(Cl)c3)c2cc1OC` [Example 480, 2-Chlorobenzyl N-{2-chloro-4-[(6,7-dimethoxy-4-quinazolinyl)oxy]phenyl}-N-methylcarbamate], at c-kit, the inhibition at 1 µM amounted to 22%. The IC50 at PDGF-Ra was 10 nM.

Take `CCCC(CCC)OC(=O)N(C)c1ccc(Oc2ncnc3cc(OC)c(OC)cc23)cc1Cl` [Example 481, 1-Propylbutyl N-{2-chloro-4-[(6,7-dimethoxy-4-quinazolinyl)oxy]phenyl}-N-methylcarbamate]: on c-kit, the inhibition at 1 µM stood at 3%. Besides, the half-maximal inhibitory concentration (IC50) at PDGF-Ra came out at 16 nM.
